# Like-named read-outs stand apart in the source and are kept apart here.
# Key:
# [1] = target: Mer (phospho-Mer, MERTK-transfected 293A cells) (Homo sapiens (Human), UniProt Q12866); assay: Mer autophosphorylation ELISA in transient transfected 293A cells (Example H); type: cell-based; details: cellular activity; Mer autophosphorylation ELISA in transient transfected 293A cells
# In short: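 Human MERTK transiently transfected into 293A cells; compounds as 8-point dose curve in serum-free medium (0.3% DMSO final), 1 h. Lysates assayed by phospho-Mer sandwich ELISA against phospho-Mer standard; DMSO = 100%, reference inhibitor = 0% activity; IC50 from 4-parameter logistic fit.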
# [2] = target: KDR (phospho-KDR, VEGF165-stimulated HUVEC cells) (Homo sapiens (Human), UniProt P35968); assay: KDR autophosphorylation ELISA in HUVEC cells (Example G); type: cell-based; details: cellular activity; KDR autophosphorylation ELISA in HUVEC cells
# In short: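 HUVECs were serum-starved 24 h, given compound as an 8-point dilution series (0.3% DMSO final) for 1 h, then stimulated with 100 ng/mL VEGF165 for 5 min. Lysate phospho-KDR was quantified by sandwich ELISA against a phospho-KDR standard, and IC50s came from a 4-parameter logistic fit.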
# [3] = target: Human MET (residues 956-1390) (Homo sapiens (Human), UniProt P08581); assay: Human Met kinase assay, HTRF KinEase (Example D-2); type: biochemical; details: read-out: c-Met IC50
# In short: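 HTRF KinEase assay on MET residues 956-1390 (0.1 ng/well) in buffer with 5 mM MgCl2, 1 mM DTT and 1 mM MnCl2, with biotinylated peptide substrate, ATP at Km, 10 compound concentrations and 3% DMSO final, run 40 min at room temperature. The […] signal was normalized to DMSO and to 1 μM reference compound, and IC50 came from a 4-parameter logistic fit.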
# [4] = protocol of Example D-2 (other compounds)
# Human MET (residues 956-1390), sequence (P08581 956-1390): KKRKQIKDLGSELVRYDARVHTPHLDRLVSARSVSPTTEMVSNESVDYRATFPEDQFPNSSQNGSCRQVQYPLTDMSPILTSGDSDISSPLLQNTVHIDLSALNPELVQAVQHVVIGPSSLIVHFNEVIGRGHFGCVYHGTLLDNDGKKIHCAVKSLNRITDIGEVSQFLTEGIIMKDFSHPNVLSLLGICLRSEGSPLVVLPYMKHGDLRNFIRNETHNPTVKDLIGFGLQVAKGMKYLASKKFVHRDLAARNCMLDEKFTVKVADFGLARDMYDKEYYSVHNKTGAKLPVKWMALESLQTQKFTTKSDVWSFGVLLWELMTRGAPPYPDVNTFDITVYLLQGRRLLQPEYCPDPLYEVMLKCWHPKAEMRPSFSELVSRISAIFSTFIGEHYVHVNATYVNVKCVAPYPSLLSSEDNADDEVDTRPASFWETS
# KDR (phospho-KDR, VEGF165-stimulated HUVEC cells), sequence (P35968 20-1356): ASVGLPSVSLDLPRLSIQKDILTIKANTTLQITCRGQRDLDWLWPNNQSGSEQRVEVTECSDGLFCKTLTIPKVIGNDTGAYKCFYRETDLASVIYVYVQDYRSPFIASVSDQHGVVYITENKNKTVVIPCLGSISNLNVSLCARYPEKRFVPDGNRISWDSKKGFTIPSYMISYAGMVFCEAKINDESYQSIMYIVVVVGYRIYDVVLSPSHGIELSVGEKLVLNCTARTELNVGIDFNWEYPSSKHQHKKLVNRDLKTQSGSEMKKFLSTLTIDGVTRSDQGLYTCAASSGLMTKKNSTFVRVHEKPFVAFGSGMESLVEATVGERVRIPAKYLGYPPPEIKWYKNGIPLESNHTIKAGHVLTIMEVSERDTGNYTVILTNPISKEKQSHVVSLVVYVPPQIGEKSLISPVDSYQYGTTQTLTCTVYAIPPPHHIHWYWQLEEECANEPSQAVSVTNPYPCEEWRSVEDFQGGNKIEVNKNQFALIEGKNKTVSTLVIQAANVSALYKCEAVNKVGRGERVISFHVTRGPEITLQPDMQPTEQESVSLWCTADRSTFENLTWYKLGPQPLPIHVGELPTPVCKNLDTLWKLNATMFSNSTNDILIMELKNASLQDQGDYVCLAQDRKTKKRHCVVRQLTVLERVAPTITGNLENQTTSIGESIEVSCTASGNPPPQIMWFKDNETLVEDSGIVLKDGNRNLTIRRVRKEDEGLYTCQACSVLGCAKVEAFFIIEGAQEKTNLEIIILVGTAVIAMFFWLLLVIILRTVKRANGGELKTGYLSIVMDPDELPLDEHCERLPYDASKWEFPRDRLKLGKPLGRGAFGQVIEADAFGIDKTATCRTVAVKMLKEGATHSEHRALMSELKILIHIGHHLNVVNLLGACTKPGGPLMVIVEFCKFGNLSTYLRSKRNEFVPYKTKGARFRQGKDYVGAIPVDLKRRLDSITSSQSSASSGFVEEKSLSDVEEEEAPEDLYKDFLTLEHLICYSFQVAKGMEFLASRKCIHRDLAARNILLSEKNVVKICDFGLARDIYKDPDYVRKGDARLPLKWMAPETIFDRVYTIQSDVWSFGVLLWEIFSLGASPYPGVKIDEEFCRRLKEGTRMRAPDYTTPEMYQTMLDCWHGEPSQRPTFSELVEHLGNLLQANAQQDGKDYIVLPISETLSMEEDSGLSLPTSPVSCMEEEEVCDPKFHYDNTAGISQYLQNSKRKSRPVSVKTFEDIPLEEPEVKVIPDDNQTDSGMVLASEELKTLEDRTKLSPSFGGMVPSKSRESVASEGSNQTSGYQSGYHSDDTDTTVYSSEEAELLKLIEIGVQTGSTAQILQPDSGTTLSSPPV
# Mer (phospho-Mer, MERTK-transfected 293A cells), sequence (Q12866 21-999): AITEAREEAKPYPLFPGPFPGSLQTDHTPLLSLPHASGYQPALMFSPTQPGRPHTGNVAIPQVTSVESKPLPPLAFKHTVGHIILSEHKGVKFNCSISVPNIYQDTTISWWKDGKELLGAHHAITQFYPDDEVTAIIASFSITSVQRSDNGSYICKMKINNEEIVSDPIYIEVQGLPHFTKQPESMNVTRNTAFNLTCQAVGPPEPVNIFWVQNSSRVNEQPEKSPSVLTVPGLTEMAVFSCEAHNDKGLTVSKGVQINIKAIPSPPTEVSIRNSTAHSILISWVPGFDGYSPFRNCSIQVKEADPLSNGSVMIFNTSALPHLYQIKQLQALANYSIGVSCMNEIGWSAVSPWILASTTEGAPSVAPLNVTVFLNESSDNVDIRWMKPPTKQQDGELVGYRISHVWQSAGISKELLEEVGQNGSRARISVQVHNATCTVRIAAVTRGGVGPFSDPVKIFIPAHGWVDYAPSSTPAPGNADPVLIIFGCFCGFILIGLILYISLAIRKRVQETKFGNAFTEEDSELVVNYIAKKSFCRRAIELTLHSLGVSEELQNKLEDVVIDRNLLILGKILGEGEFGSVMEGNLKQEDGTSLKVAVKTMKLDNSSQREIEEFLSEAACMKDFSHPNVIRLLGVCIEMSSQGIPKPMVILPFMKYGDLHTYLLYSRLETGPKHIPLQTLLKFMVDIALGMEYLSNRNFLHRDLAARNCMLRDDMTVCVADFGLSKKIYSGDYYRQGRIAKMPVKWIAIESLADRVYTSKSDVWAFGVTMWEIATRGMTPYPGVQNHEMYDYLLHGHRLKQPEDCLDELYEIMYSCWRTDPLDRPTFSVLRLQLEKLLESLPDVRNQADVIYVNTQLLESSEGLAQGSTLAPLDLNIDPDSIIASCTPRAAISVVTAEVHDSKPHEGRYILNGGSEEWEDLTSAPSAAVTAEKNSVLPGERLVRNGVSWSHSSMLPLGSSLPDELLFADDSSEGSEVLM
SMILES,IC50 [1],IC50 [2],"IC50 [3, 4]",IC50 ([3]; protocol of Example D-2)
"COCCOc1ccc2nccc(Oc3ccc(NC(=O)c4cnc(C)c(-c5ccc(F)cc5)c4O)cc3F)c2n1 [Compound 348, N-[3-fluoro-4-[[6-(2-methoxyethoxy)-1,5-naphthyridin-4-yl]oxy]phenyl]-5-(4-fluorophenyl)-4-hydroxy-6-methylpyridine-3-carboxamide]",< 100 nM,< 100 nM,< 100 nM,–
"COc1cc2ncnc(Oc3ccc(NC(=O)c4c5n(cc(-c6ccc(F)cc6)c4=O)CCC5)cc3F)c2cc1OC [Compound 406, N-[4-(6,7-dimethoxyquinazolin-4-yl)oxy-3-fluorophenyl]-6-(4-fluorophenyl)-7-oxo-2,3-dihydro-1H-indolizine-8-carboxamide]",< 100 nM,< 100 nM,< 100 nM,–
"C=C(C)c1cnc2c(Oc3ccc(NC(=O)c4c(C)nc(C)c(-c5ccc(F)cc5)c4O)cc3F)ccnc2c1 [Compound 451, 5-(4-fluorophenyl)-N-[3-fluoro-4-[(7-prop-1-en-2-yl-1,5-naphthyridin-4-yl)oxy]phenyl]-4-hydroxy-2,6-dimethylpyridine-3-carboxamide]",< 100 nM,< 100 nM,–,< 100 nM
"COc1cc2nccc(Oc3ccc(NC(=O)c4cn(C)c(CF)c(-c5ccc(F)cc5C)c4=O)cc3F)c2nc1OC [Compound 556, N-[4-[(6,7-Dimethoxy-1,5-naphthyridin-4-yl)oxy]-3-fluorophenyl]-6-(fluoromethyl)-5-(4-fluoro-2-methylphenyl)-1-methyl-4-oxopyridine-3-carboxamide]",< 100 nM,< 100 nM,–,100 to 300 nM
"CCc1ncc(C(=O)Nc2ccc(Oc3ccnc4cc(OC)c(OC)nc34)c(F)c2)c(O)c1-c1ccc(F)cc1 [Compound 504, N-[4-[(6,7-dimethoxy-1,5-naphthyridin-4-yl)oxy]-3-fluorophenyl]-6-ethyl-5-(4-fluorophenyl)-4-hydroxypyridine-3-carboxamide]",< 100 nM,< 100 nM,–,< 100 nM
"COCCOc1nc2c(Oc3ccc(NC(=O)c4cn(C)c(CF)c(-c5ccc(F)cc5)c4=O)cc3F)ccnc2cc1OC [Compound 557, N-[3-Fluoro-4-[[7-methoxy-6-(2-methoxyethoxy)-1,5-naphthyridin-4-yl]oxy]phenyl]-6-(fluoromethyl)-5-(4-fluorophenyl)-1-methyl-4-oxopyridine-3-carboxamide]",< 100 nM,100 to 300 nM,–,< 100 nM
"COc1cc2c(Oc3ccc(NC(=O)c4ccc(C)n(-c5ccc(F)cc5)c4=O)cc3F)ccnc2cn1 [Compound 494, N-[3-fluoro-4-[(6-methoxy-1,7-naphthyridin-4-yl)oxy]phenyl]-1-(4-fluorophenyl)-6-methyl-2-oxopyridine-3-carboxamide]",< 100 nM,< 100 nM,–,< 100 nM
"COc1cc2nccc(Oc3ccc(NC(=O)c4nn(C)c(C)c(-c5ccc(F)cc5C)c4=O)cc3F)c2nc1OC [Compound 512, N-[4-[(6,7-dimethoxy-1,5-naphthyridin-4-yl)oxy]-3-fluorophenyl]-5-(4-fluoro-2-methylphenyl)-1,6-dimethyl-4-oxopyridazine-3-carboxamide]",< 100 nM,< 100 nM,–,< 100 nM
"COc1cc2nccc(Oc3ccc(NC(=O)c4cn(CC(F)(F)F)c(C)c(-c5ccc(F)cc5)c4=O)cc3)c2cc1OC [Compound 260, N-[4-(6,7-Dimethoxyquinolin-4-yl)oxyphenyl]-5-(4-fluorophenyl)-6-methyl-4-oxo-1-(2,2,2-trifluoroethyl)pyridine-3-carboxamide]",< 100 nM,> 300 nM,< 100 nM,–
"COc1cc2nccc(Oc3ccc(NC(=O)c4c(C)c(C)nn(-c5ccc(F)cc5)c4=O)cc3F)c2nc1OC [Compound 524, N-[4-[(6,7-dimethoxy-1,5-naphthyridin-4-yl)oxy]-3-fluorophenyl]-2-(4-fluorophenyl)-5,6-dimethyl-3-oxopyridazine-4-carboxamide]",< 100 nM,100 to 300 nM,–,100 to 300 nM
"COc1cc2nccc(Oc3ccc(NC(=O)c4c(C)n(C)c(C)c(-c5ccc(F)cc5)c4=O)cc3F)c2nc1OC [Compound 511, N-[4-[(6,7-dimethoxy-1,5-naphthyridin-4-yl)oxy]-3-fluorophenyl]-5-(4-fluorophenyl)-1,2,6-trimethyl-4-oxopyridine-3-carboxamide]",< 100 nM,100 to 300 nM,–,< 100 nM
"COc1cc2nccc(Oc3ccc(NC(=O)c4cnc(COC(C)=O)c(-c5ccc(F)cc5)c4O)cc3F)c2nc1OC [Compound 544, [5-[[4-[(6,7-dimethoxy-1,5-naphthyridin-4-yl)oxy]-3-fluorophenyl]carbamoyl]-3-(4-fluorophenyl)-4-hydroxypyridin-2-yl]methyl acetate]",< 100 nM,< 100 nM,–,< 100 nM
"COc1cc2nccc(Oc3ccc(NC(=O)c4c(C)n(C)c(C)c(-c5ccc(F)cc5)c4=O)cc3)c2nc1OC [Compound 523, N-[4-[(6,7-dimethoxy-1,5-naphthyridin-4-yl)oxy]phenyl]-5-(4-fluorophenyl)-1,2,6-trimethyl-4-oxopyridine-3-carboxamide]",< 100 nM,> 300 nM,–,< 100 nM
"C=C(C)c1cnc2c(Oc3ccc(NC(=O)c4cnc(C)c(-c5ccc(F)cc5C)c4O)cc3)ccnc2c1 [Compound 448, 5-(4-fluoro-2-methylphenyl)-4-hydroxy-6-methyl-N-[4-[(7-prop-1-en-2-yl-1,5-naphthyridin-4-yl)oxy]phenyl]pyridine-3-carboxamide]",< 100 nM,< 100 nM,–,< 100 nM
"COc1ccc2nccc(Oc3ccc(NC(=O)c4c(C)n(C)cc(-c5ccc(F)cc5C)c4=O)cc3F)c2n1 [Compound 483, N-[3-fluoro-4-[(6-methoxy-1,5-naphthyridin-4-yl)oxy]phenyl]-5-(4-fluoro-2-methylphenyl)-1,2-dimethyl-4-oxopyridine-3-carboxamide]",< 100 nM,> 300 nM,–,> 300 nM
"COCc1nc(C)c(-c2ccc(F)cc2)c(O)c1C(=O)Nc1ccc(Oc2ccnc3ccc(OC)cc23)c(F)c1 [Compound 525, N-[3-fluoro-4-(6-methoxyquinolin-4-yl)oxyphenyl]-5-(4-fluorophenyl)-4-hydroxy-2-(methoxymethyl)-6-methylpyridine-3-carboxamide]",< 100 nM,< 100 nM,–,100 to 300 nM

# Continued, values first:
IC50 [1],IC50 [2],"IC50 [3, 4]",IC50 ([3]; protocol of Example D-2),SMILES
< 100 nM,> 300 nM,< 100 nM,–,"COc1cnc2c(Oc3ccc(NC(=O)c4cn(C)c(C)c(-c5ccc(F)cc5C)c4=O)cc3)ccnc2c1 [Compound 187, 5-(4-Fluoro-2-methylphenyl)-N-[4-[(7-methoxy-1,5-naphthyridin-4-yl)oxy]phenyl]-1,6-dimethyl-4-oxopyridine-3-carboxamide]"
< 100 nM,< 100 nM,–,< 100 nM,"Cc1ccc(C(=O)Nc2ccc(Oc3ccnc4cc(O)cnc34)c(F)c2)c(=O)n1-c1ccc(F)cc1 [Compound 551, N-[3-Fluoro-4-[(7-hydroxy-1,5-naphthyridin-4-yl)oxy]phenyl]-1-(4-fluorophenyl)-6-methyl-2-oxopyridine-3-carboxamide]"
< 100 nM,< 100 nM,–,100 to 300 nM,"COc1ccc2nccc(Oc3ccc(NC(=O)c4c(C)ncc(-c5ccc(F)cc5C)c4O)cc3F)c2n1 [Compound 480, N-[3-fluoro-4-[(6-methoxy-1,5-naphthyridin-4-yl)oxy]phenyl]-5-(4-fluoro-2-methylphenyl)-4-hydroxy-2-methylpyridine-3-carboxamide]"
< 100 nM,< 100 nM,< 100 nM,–,"COc1cc2nccc(Oc3ccc(NC(=O)c4c(C)nc(C)c(-c5ccc(F)cc5)c4O)cc3F)c2nc1OC [Compound 154, N-[4-[(6,7-Dimethoxy-1,5-naphthyridin-4-yl)oxy]-3-fluorophenyl]-5-(4-fluorophenyl)-4-hydroxy-2,6-dimethylpyridine-3-carboxamide]"
< 100 nM,> 300 nM,–,< 100 nM,"COc1cnc2c(Oc3ccc(NC(=O)c4c(C)n(C)c(C)c(-c5ccc(F)cc5)c4=O)cc3F)ccnc2c1 [Compound 508, N-[3-fluoro-4-[(7-methoxy-1,5-naphthyridin-4-yl)oxy]phenyl]-5-(4-fluorophenyl)-1,2,6-trimethyl-4-oxopyridine-3-carboxamide]"
< 100 nM,< 100 nM,–,< 100 nM,"COc1cnc2c(Oc3ccc(NC(=O)c4nn(C)c(C)c(-c5ccc(F)cc5C)c4=O)cc3F)ccnc2c1 [Compound 513, N-[3-fluoro-4-[(7-methoxy-1,5-naphthyridin-4-yl)oxy]phenyl]-5-(4-fluoro-2-methylphenyl)-1,6-dimethyl-4-oxopyridazine-3-carboxamide]"
< 100 nM,< 100 nM,–,100 to 300 nM,"COc1nc2c(Oc3ccc(NC(=O)c4cnc(C)c(-c5ccc(F)cc5)c4O)cc3F)ccnc2cc1C [Compound 458, N-[3-fluoro-4-[(6-methoxy-7-methyl-1,5-naphthyridin-4-yl)oxy]phenyl]-5-(4-fluorophenyl)-4-hydroxy-6-methylpyridine-3-carboxamide]"
